Where a name gives a salt, the structure may show the parent alone.
Columns and labels:
CDK6 = target: T1, CDK6 (Homo sapiens, UniProt Q00534); test: Lance TR-FRET kinase assay, CDK6; format: biochemical
T1 construct: purchased ThermoFisher (Waltham, Mass.)
Protocol: (§1) Time Resolved-Fluorescent Resonance Energy Transfer (TR-FRET) was used to determine inhibitory ability of compounds A1˜A19, B1s and B1˜B12 against the enzymatic activity of CDK1, CDK2, CDK4, CDK5, CDK6, CDK7, and CDK9.
(§2) Inhibitory activity of compounds against CDK1/2/4/5/6/7 was assessed using Lance TR-FRET assay kits from Perkin Elmer Life Sciences (Waltham, Mass.). CDK1/2/4/5/6/7 enzymes were purchased from ThermoFisher (Waltham, Mass.). 2.5 μL of compound solutions and 2.5 μL of enzyme solutions in kinase assay buffer, which was 50 mM HEPES (pH 7.5) with 1 mM EGTA, 1 mM MgCl2, 2 mM DTT, and 0.01% Tween-20, were added into a white OptiPlate-384 plate followed by adding 5 μL of fluorescently labeled peptide substrates (Ulight-4E-BP1 for CDK4/6 and Ulight-MBP for CDK1/2/7/9) and ATP mixture solutions. Final concentrations of substrates and DMSO were 100 nM and 0.5%, respectively. Concentrations of ATP and different CDK enzymes were adjusted accordingly to achieve optimal enzymatic activities. Final CDK concentrations were 100, 500, 600, 100, 50, and 200 ng/well and ATP concentrations were 30, 50, 100, 20, 100, and 50 μM for CDK1/2/4/5/6/7, respectively. Assay plates were covered to protect from light and spun for 1 min at 700 RPM. Reactions were allowed to perform for 60 minutes in dark with gentle shaking at room temperature after which 5 μL of 40 mM EDTA in detection buffer was added to stop reactions followed 5 μL of the Eu labeled antibodies giving final concentrations of 2 nM to detect the phosphorylation of the peptide substrates. Assay plates were read with the EnVision™ Multilabel Reader in TR-FRET mode (excitation at 320 nm and emission at 665 nm). The percent of inhibition was calculated from the means of data points using the formula: 100−(Signalcompound−NoSignalbackground)*100/(Signalvehicle−NoSignalbackground). The IC50s were determined with GraphPad Prism by the non-linear sigmoidal curve fitting of data from 10 doses.

CDK4 = target: T2, CDK4 (Homo sapiens, UniProt P11802); test: Lance TR-FRET kinase assay, CDK4; format: biochemical; conditions: ATP 100 μM, 60 min, read-out: CDK 4 inhibitory activity (IC50)
T2 construct: purchased ThermoFisher (Waltham, Mass.)
T2 sequence (P11802 whole entry): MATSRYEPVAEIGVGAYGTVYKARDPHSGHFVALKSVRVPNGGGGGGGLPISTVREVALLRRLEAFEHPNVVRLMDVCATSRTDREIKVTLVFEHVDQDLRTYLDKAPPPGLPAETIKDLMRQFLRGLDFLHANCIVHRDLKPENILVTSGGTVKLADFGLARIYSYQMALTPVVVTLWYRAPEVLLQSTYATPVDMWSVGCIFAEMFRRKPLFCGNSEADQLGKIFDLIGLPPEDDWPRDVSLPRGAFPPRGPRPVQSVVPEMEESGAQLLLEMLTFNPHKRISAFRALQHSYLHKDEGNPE
T2 sequence (P24385 whole entry partner): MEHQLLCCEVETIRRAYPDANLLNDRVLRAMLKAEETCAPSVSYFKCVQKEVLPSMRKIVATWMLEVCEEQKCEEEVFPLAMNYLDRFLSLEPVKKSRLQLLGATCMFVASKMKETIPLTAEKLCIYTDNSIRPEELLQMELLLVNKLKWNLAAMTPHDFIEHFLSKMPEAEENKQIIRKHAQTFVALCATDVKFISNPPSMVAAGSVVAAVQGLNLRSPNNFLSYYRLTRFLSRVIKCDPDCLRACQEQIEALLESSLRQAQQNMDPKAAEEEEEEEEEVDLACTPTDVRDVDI
Protocol: as §2, with “2.5 μL of compound solutions and 2.5 μL of enzyme solutions in kinase assay buffer, which was 50 mM HEPES (pH 7.5) with 1 mM EGTA, 1 mM MgCl2, 2 mM DTT, and 0.01% Tween-20, were added into a white OptiPlate-384 plate followed by adding 5 μL of fluorescently labeled peptide substrates (Ulight-4E-BP1 for CDK4/6 and Ulight-MBP for CDK1/2/7/9) and ATP mixture solutions.” left out, “Assay plates were read with the EnVision™ Multilabel Reader in TR-FRET mode (excitation at 320 nm and emission at 665 nm).” left out

CDK9/cyclin T1 = target: T3, CDK9/cyclin T1 (Homo sapiens, UniProt P50750); test: LanthaScreen Eu kinase binding assay, CDK9; conditions: tracer 236 displacement, CDK9/cyclin T1 5 nM, 1 hour; read-out: CDK 9 inhibitory activity (IC50)
T3 construct: purchased ThermoFisher (Waltham, Mass.)
T3 sequence (P50750 whole entry): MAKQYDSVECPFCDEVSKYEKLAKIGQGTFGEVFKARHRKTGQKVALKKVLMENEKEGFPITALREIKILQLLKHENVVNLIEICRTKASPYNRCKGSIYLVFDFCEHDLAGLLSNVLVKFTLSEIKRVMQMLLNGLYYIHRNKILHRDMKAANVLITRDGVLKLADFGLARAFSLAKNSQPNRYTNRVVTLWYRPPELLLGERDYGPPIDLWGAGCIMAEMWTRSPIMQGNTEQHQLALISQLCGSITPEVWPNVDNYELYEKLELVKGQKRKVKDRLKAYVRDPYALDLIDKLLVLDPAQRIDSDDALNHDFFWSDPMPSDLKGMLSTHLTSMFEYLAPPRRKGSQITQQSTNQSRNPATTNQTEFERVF
T3 sequence (O60563 whole entry partner): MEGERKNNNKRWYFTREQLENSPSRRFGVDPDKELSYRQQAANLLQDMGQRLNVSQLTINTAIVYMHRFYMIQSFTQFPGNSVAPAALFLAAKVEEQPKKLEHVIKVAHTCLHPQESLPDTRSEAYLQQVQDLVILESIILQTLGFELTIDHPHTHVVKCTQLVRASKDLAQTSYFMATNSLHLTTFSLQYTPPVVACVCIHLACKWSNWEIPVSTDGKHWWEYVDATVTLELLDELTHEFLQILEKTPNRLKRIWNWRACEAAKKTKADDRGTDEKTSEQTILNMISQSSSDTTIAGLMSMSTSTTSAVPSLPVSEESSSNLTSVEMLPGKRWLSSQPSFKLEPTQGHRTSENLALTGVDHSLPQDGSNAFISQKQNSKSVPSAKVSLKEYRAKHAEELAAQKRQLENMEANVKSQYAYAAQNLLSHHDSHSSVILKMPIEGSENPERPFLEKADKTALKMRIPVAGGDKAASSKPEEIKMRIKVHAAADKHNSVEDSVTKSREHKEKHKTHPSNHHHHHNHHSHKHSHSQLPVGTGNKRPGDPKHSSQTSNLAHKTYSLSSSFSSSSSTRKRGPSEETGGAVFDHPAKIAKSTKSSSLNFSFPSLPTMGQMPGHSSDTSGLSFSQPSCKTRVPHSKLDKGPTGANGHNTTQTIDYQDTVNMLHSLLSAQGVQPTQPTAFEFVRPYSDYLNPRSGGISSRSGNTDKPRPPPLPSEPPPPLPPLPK
Protocol: as §1
The CDK9 kinase inhibitory activity of compounds was tested in the LanthaScreen Eu kinase binding assay from ThermoFisher. LanthaScreen® Eu Kinase binding assays are based on the binding and displacement of a proprietary, Alexa Fluor® 647-labeled, ATP-competitive kinase inhibitor scaffold (kinase tracer) to CDK9. CDK9/cyclin T1, Kinase tracer 236 and LanthaScreen® Eu-anti-His Antibody were purchased form ThermoFisher (Waltham, Mass.). 5 μL of CDK9/cyclin T1 (final 5 nM)/antibody (final 2 nM) mixture, 5 μL of compound in kinase buffer, and 5 μL of tracer (final 30 nM) were added to wells of a white OptiPlate-384 plate in this specific order. Assay plates were covered to protect from light, spun for 1 min at 700 RPM and incubated at room temperature for 1 hour. Assay plates were read with the EnVision™ Multilabel Reader in TR-FRET mode (excitation at 320 nm and emission at 665 nm). The percent of inhibition was calculated from the means of data points using the formula: 100−(Signalcompound−NoSignalbackgound)*100/(Signalvehicle−NoSignalbackground). The IC50s were determined with GraphPad Prism by the non-linear sigmoidal curve fitting of data from 10 doses.

CDK1 = target: T4, CDK1 (Homo sapiens, UniProt P06493); test: Lance TR-FRET kinase assay, CDK1; format: biochemical; conditions: ATP 30 μM, 60 min, read-out: CDK 1 inhibitory activity (IC50)
T4 construct: purchased ThermoFisher (Waltham, Mass.)
T4 sequence (P06493 whole entry): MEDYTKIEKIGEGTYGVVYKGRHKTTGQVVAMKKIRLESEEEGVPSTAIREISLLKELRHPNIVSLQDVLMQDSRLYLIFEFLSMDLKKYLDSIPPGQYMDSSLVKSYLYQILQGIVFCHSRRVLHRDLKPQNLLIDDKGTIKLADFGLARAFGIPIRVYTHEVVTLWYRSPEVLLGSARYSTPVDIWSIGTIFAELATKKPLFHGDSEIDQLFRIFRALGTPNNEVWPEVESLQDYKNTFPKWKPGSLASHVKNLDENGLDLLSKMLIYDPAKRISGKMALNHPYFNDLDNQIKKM
T4 sequence (P14635 whole entry partner): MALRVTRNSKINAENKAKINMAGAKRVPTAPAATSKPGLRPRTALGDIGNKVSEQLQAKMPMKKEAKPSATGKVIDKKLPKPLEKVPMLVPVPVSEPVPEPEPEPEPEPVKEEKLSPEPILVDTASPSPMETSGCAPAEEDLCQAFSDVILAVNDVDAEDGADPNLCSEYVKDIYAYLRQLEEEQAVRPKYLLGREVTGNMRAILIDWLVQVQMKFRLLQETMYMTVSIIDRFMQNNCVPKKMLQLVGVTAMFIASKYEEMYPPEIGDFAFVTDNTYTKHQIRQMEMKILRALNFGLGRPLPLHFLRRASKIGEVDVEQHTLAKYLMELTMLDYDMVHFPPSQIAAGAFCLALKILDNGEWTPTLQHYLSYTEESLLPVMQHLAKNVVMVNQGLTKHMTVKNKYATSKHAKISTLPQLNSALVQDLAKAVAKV
Protocol: as §1, §2

CDK2 = target: T5, CDK2 (Homo sapiens, UniProt P24941); test: Lance TR-FRET kinase assay, CDK2; format: biochemical; conditions: ATP 50 μM, 60 min, read-out: CDK 2 inhibitory activity (IC50)
T5 construct: purchased ThermoFisher (Waltham, Mass.)
Protocol: as §1, §2

CDK7 = target: T6, CDK7 (Homo sapiens, UniProt P50613); test: Lance TR-FRET kinase assay, CDK7; format: biochemical; conditions: ATP 50 μM, 60 min, read-out: CDK 7 inhibitory activity (IC50)
T6 construct: purchased ThermoFisher (Waltham, Mass.)
T6 sequence (P50613 whole entry): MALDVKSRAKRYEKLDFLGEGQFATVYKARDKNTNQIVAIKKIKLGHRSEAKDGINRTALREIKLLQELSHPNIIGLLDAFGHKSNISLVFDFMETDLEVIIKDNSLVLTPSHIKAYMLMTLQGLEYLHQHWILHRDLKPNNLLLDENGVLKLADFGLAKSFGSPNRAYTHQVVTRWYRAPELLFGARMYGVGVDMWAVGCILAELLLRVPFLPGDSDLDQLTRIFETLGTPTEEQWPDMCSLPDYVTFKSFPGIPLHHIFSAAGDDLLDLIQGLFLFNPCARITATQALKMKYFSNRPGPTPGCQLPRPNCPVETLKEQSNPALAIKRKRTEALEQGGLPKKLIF
T6 sequence (P51946 whole entry partner): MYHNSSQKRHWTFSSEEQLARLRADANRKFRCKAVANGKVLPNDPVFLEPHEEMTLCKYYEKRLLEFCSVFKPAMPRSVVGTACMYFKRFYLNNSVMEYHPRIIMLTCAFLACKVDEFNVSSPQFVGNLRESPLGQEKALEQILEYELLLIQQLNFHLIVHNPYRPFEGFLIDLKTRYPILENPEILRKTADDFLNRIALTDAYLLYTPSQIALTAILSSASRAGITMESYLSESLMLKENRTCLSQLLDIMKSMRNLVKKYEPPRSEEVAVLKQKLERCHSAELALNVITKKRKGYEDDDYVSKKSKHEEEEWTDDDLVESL
T6 sequence (P51948 whole entry partner): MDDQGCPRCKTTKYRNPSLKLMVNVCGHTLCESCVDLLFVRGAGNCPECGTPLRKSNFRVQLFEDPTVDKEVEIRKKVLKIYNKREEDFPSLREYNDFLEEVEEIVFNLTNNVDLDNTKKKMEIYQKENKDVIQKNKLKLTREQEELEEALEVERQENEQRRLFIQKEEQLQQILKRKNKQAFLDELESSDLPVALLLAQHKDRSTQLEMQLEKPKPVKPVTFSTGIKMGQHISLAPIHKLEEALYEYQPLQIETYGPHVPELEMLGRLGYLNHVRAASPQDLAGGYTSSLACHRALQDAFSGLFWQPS
Protocol: as §2, with “2.5 μL of compound solutions and 2.5 μL of enzyme solutions in kinase assay buffer, which was 50 mM HEPES (pH 7.5) with 1 mM EGTA, 1 mM MgCl2, 2 mM DTT, and 0.01% Tween-20, were added into a white OptiPlate-384 plate followed by adding 5 μL of fluorescently labeled peptide substrates (Ulight-4E-BP1 for CDK4/6 and Ulight-MBP for CDK1/2/7/9) and ATP mixture solutions.” left out, “Assay plates were read with the EnVision™ Multilabel Reader in TR-FRET mode (excitation at 320 nm and emission at 665 nm).” left out

T1 sequence (Q00534 whole entry): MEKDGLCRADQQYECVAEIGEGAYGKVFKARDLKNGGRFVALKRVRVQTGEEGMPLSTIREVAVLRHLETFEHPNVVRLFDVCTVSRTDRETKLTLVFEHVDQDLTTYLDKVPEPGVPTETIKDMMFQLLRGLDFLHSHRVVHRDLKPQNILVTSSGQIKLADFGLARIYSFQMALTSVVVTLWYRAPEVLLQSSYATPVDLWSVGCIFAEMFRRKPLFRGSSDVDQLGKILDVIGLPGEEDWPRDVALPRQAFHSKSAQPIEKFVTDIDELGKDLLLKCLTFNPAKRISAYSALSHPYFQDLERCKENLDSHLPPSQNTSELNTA
T1 sequence (P24385 whole entry partner): as the sequence (P24385 whole entry partner) above

| Compound | IC50 (CDK6) [nM] | IC50 (CDK4) [nM] | IC50 (CDK9/cyclin T1) [nM] | IC50 (CDK1) [nM] | IC50 (CDK2) [nM] | IC50 (CDK7) [nM] |
| --- | --- | --- | --- | --- | --- | --- |
| CN(C)C(=O)c1sc2cnc(Nc3ccc(N4CCNCC4)cn3)cc2c1C1=CCCC1 [Compound A2, 3-(cyclopent-1-en-1-yl)-N,N-dimethyl-5-((5-(piperazin-1-yl)pyridin-2-yl)amino)thieno[2,3-c]pyridine-2-carboxamide] | 2.3 | 5 |  |  |  |  |
| Cc1c(C(=O)N(C)C)sc2cnc(Nc3ccc(N4CCNCC4)cn3)cc12 [Compound A3, N,N,3-trimethyl-5-((5-(piperazin-1-yl)pyridin-2-yl)amino)thieno[2,3-c]pyridine-2-carboxamide] | 174 | 413 | 420 |  |  |  |
| CN(C)C(=O)c1sc2cnc(Nc3ccc(N4CCNCC4)cn3)cc2c1C1CCC1 [Compound A4, 3-cyclobutyl-N,N-dimethyl-5-((5-(piperazin-1-yl)pyridin-2-yl)amino)thieno[2,3-c]pyridine-2-carboxamide] | 2.1 | 4.6 |  |  |  |  |
| COC1(c2c(C(=O)N(C)C)sc3cnc(Nc4ccc(N5CCNCC5)cn4)cc23)CCCC1 [Compound A6, 3-(1-methoxycyclopentyl)-N,N-dimethyl-5-((5-(piperazin-1-yl)pyridin-2-yl)amino)thieno[2,3-c]pyridine-2-carboxamide] | 2.1 | 3.7 | 5.2 | 501 | 124 |  |
| CN(C)C(=O)c1sc2cnc(Nc3ccc(N4CCNCC4)cn3)cc2c1C1CC2CC2C1 (stereo not shown) [Compound A7, 3-(bicyclo[3.1.0]hexan-3-yl)-N,N-dimethyl-5-((5-(piperazin-1-yl)pyridin-2-yl)amino)thieno[2,3-c]pyridine-2-carboxamide] | 6.4 | 4.7 |  |  |  |  |
| O=C(c1sc2cnc(Nc3ccc(N4CCNCC4)cn3)cc2c1C1CCCC1)N1CCC1 [Compound A8, azetidin-1-yl(3-cyclopentyl-5-((5-(piperazin-1-yl)pyridin-2-yl)amino)thieno[2,3-c]pyridin-2-yl)methanone] | 84 | 31 | 552 |  |  |  |
| N#CC1CN(C(=O)c2sc3cnc(Nc4ccc(N5CCNCC5)cn4)cc3c2C2CCCC2)C1 [Compound A9, 1-(3-cyclopentyl-5-((5-(piperazin-1-yl)pyridin-2-yl)amino)thieno[2,3-c]pyridine-2-carbonyl) azetidine-3-carbonitrile] | 3.3 | 5.3 |  |  |  |  |
| CN(C)C(=O)c1sc2cnc(Nc3cccc(N4CCOCC4)c3)cc2c1C1CCCC1 [Compound A10, 3-cyclopentyl-N,N-dimethyl-5-((3-morpholinophenyl)amino)thieno[2,3-c]pyridine-2-carboxamide] | 168 | 262 | 106 |  |  |  |
| CN(C)C(=O)c1sc2cnc(Nc3cccc(N4CCNCC4)c3)cc2c1C1CCCC1 [Compound A11, 3-cyclopentyl-N,N-dimethyl-5-((3-(piperazin-1-yl)phenyl)amino)thieno[2,3-c]pyridine-2-carboxamide] | 50 | 160 | 58 |  |  |  |
| CN(C)C(=O)c1sc2cnc(Nc3ccc(N4CCNCC4)cn3)cc2c1C1CCC(F)(F)C1 (stereo not shown) [Compound A12, 3-(3,3-difluorocyclopentyl)-N,N-dimethyl-5-((5-(piperazin-1-yl)pyridin-2-yl)amino)thieno[2,3-c]pyridine-2-carboxamide] | 20 | 29 |  | 3680 | 1110 |  |
| CN(C)C(=O)c1sc2cnc(Nc3ccc(N4CCNCC4)cn3)cc2c1C1CCOC1 (stereo not shown) [Compound A13, N,N-dimethyl-5-((5-(piperazin-1-yl)pyridin-2-yl)amino)-3-(tetrahydrofuran-3-yl)thieno[2,3-c]pyridine-2-carboxamide] | 25 | 34 |  |  |  |  |
| CN(C)C(=O)c1sc2cnc(Nc3ccc(N4CCN(C(=O)C(O)CO)CC4)cn3)cc2c1C1CCCC1 (stereo not shown) [Compound A14, 3-cyclopentyl-5-((5-(4-(2,3-dihydroxypropanoyl)piperazin-1-yl)pyridin-2-yl)amino)-N,N-dimethylthieno[2,3-c]pyridine-2-carboxamide] | 2.1 | 2.9 | 4.2 | 273 | 67.7 |  |
| CC(C)c1c(C(=O)N(C)C)sc2cnc(Nc3ccc(N4CCNCC4)cn3)cc12 [Compound A15, 3-isopropyl-N,N-dimethyl-5-((5-(piperazin-1-yl)pyridin-2-yl)amino)thieno[2,3-c]pyridine-2-carboxamide] | 10.7 | 20.5 |  |  |  |  |
| CN(C)C(=O)c1sc2cnc(Nc3ccc(N4CCNCC4)cn3)cc2c1C1CC1 [Compound A16, 3-cyclopropyl-N,N-dimethyl-5-((5-(piperazin-1-yl)pyridin-2-yl)amino)thieno[2,3-c]pyridine-2-carboxamide] | 21 | 32.1 | 24 |  |  |  |
| O=C(c1sc2cnc(Nc3ccc(N4CCNCC4)cn3)cc2c1C1CCCC1)N1CCCC1 [Compound A17, (3-cyclopentyl-5-((5-(piperazin-1-yl)pyridin-2-yl)amino)thieno[2,3-c]pyridin-2-yl)(pyrrolidin-1-yl)methanone] | 20 | 12 |  |  |  |  |
| CC1(C)CN(C(=O)c2sc3cnc(Nc4ccc(N5CCNCC5)cn4)cc3c2C2CCCC2)C1 [Compound A18, (3-cyclopentyl-5-((5-(piperazin-1-yl)pyridin-2-yl)amino)thieno[2,3-c]pyridin-2-yl)(3,3-dimethylazetidin-1-yl)methanone] | 262 | 60 |  |  |  |  |
| O=C(c1sc2cnc(Nc3ccc(N4CCNCC4)cn3)cc2c1C1CCCC1)N1CC(O)C1 [Compound A19, (3-cyclopentyl-5-((5-(piperazin-1-yl)pyridin-2-yl)amino)thieno[2,3-c]pyridin-2-yl)(3-hydroxyazetidin-1-yl)methanone] | 18 | 22 |  |  |  |  |
| N#Cc1sc2cnc(Nc3ccc(N4CCNCC4)cn3)cc2c1C1CCCC1 [Compound B1s, 3-cyclopentyl-5-((5-(piperazin-1-yl)pyridin-2-yl)amino)thieno[2,3-c]pyridine-2-carbonitrile hydrochloride] |  | 0.9 | 0.6 | 8.7 | 9.2 | 7.2 |

— US20170152269A1, “FUSED BICYCLIC COMPOUNDS AND THEIR USE AS CDK INHIBITORS” (priority 2016, published 2017)
